Here are results for 35 compounds from patent publication US20240368181A1, “QUINOXALINE DERIVATIVES AND USES THEREOF” (Black Diamond Therapeutics, Inc., priority 2021, published 2024).

What all share (assay type): cell-based
Assay [1] concerns SNU-16 (FGFR2-amplification) cells. Put plainly: cell proliferation assay (CellTiterGlo), SNU-16 cells. As to conditions: Homo sapiens, 72 hours. In short, it runs like this: (§1)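 Cells were incubated with vehicle (DMSO) or compound over a range of concentrations. Growth inhibition was read by CellTiterGlo luminescence of intracellular ATP. IC50 was derived after normalizing to vehicle-treated cells as viable.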
In general terms: Cellular ATP, detected with luciferase, serves as a proxy for viable cell number.

In assay [2] the test system is UM-UC-14 (FGFR3-S249C) cells. The assay is described as follows: cell proliferation assay (CellTiterGlo), UM-UC-14 cells. As to conditions: UMUC14, 72 h. The method in brief: as §1
The test system of assay [3] is DMS-114 (FGFR1 overexpression) cells. Put plainly: cell proliferation assay (CellTiterGlo), DMS-114 cells. The note with it: Homo sapiens, DMS-114, 72 h. The method in brief: as §1
Assay [4] relates to RT-112 (FGFR3-Tacc3 fusion) cells. The assay is described as follows: cell proliferation assay (CellTiterGlo), RT-112 cells. As to conditions: Homo sapiens, RT-112, RT112 cells, 72 hours. The method in brief:
as §1

Molecules are shown by their SMILES. pIC50: −log10 of the molar value.

By pIC50 is commonly meant −log10 of the IC50, conventionally taken in molar units. `Cc1nc2ccc(Oc3ccc4ncc(-c5cnn([C@H]6C[C@@](C)(O)C6)c5)nc4c3Cl)c(F)c2[nH]1` [Compound 151]: the pIC50 is > 7.70 in assay [1], > 7.70 in assay [2], 7.00 to 7.70 in assay [3] and > 7.70 in assay [4].
`Cc1nc2ccc(Oc3ccc4ncc(-c5cnn(CC6CCC(F)(F)CC6)c5)nc4c3Cl)c(F)c2[nH]1` [Compound 152]: the pIC50 in assay [1] is 7.00 to 7.70; in assay [2], 7.00 to 7.70; in assay [3], 6.40 to 7.00; in assay [4], 7.00 to 7.70.
`Cc1nc2ccc(Oc3ccc4ncc(-c5cnn(C6CCC(F)(F)CC6)c5)nc4c3Cl)c(F)c2[nH]1` [Compound 153]: the pIC50 in assay [1] was 7.00 to 7.70; in assay [2] it was 7.00 to 7.70; in assay [3], 6.40 to 7.00; in assay [4] it was 7.00 to 7.70.
Regarding `Cc1nc2ccc(Oc3ccc4ncc(-c5cnn(CC6CC(F)(F)C6)c5)nc4c3C3=CCOC3)cc2[nH]1` [Compound 179], the pIC50 in assay [1] is > 7.70; in assay [2] it was > 7.70; in assay [3], 6.40 to 7.00; in assay [4], > 7.70.
For `Cc1nc2ccc(Oc3ccc4ncc(-c5cnn(C6CN(C(=O)N7CC(O)C7)C6)c5)nc4c3Cl)cc2[nH]1` [Compound 183], the pIC50 is 6.40 to 7.00 in assay [1], 6.40 to 7.00 in assay [2], ≤ 6.40 in assay [3] and 6.40 to 7.00 in assay [4].
Consider `Cc1nc2ccc(Oc3ccc4ncc(-c5cnn(C6CN(C(=O)N(C)C)C6)c5)nc4c3Cl)cc2[nH]1` [Compound 184], for which the pIC50 was 7.00 to 7.70 in assay [1], 7.00 to 7.70 in assay [2], ≤ 6.40 in assay [3] and 7.00 to 7.70 in assay [4].
For the compound `Cc1nc2ccc(Oc3ccc4ncc(-c5cnn(C6CN(C(=O)N7CCC7)C6)c5)nc4c3Cl)cc2[nH]1` [Compound 185], the pIC50 is 7.00 to 7.70 in assay [1], 7.00 to 7.70 in assay [2], ≤ 6.40 in assay [3] and 7.00 to 7.70 in assay [4].
For `Cc1nc2ccc(Oc3ccc4ncc(-c5cnn(C6CCC(F)(F)CC6)c5)nc4c3Cl)cc2o1` [Compound 186], the pIC50 in assay [1], in assay [2], in assay [3] and in assay [4] was ≤ 6.40 each time.
For `Cc1nc2ccc(Oc3ccc4ncc(-c5cnn(C6CC7COCC(C6)N7)c5)nc4c3Cl)cc2[nH]1` (centres unmarked) [Compound 187], the pIC50 in assay [1] was 7.00 to 7.70; in assay [2] it was 7.00 to 7.70; in assay [3], ≤ 6.40; in assay [4], 7.00 to 7.70.
As for `Cc1nc2ccc(Oc3ccc4ncc(-c5cnn(CC(=O)N6CCOC(C)(C)C6)c5)nc4c3Cl)cc2[nH]1` [Compound 188], the pIC50 in assay [1] was 7.00 to 7.70; in assay [2], 7.00 to 7.70; in assay [3], ≤ 6.40; in assay [4], 7.00 to 7.70.
As to `Cc1nc2ccc(Oc3ccc4ncc(-c5cnn(C6CCN(C(=O)N7CC(O)C7)CC6)c5)nc4c3Cl)cc2[nH]1` [Compound 189], the pIC50 is 7.00 to 7.70 in assay [1], 7.00 to 7.70 in assay [2], ≤ 6.40 in assay [3] and 7.00 to 7.70 in assay [4].
`Cc1nc2ccc(Oc3ccc4ncc(-c5cnn(C6CN(c7cccc(N(C)C)n7)C6)c5)nc4c3Cl)cc2[nH]1` [Compound 190]: the pIC50 in assay [1], in assay [2], in assay [3] and in assay [4] was ≤ 6.40 throughout.
As for `Cc1nc2ccc(Oc3ccc4ncc(-c5cnn(C6CN(c7ccccn7)C6)c5)nc4c3Cl)cc2[nH]1` [Compound 191], the negative logarithm of the IC50 (pIC50) in assay [1] was 6.40 to 7.00; in assay [2] it was 6.40 to 7.00; in assay [3], ≤ 6.40; in assay [4], 6.40 to 7.00.
For `Cc1nc2ccc(Oc3ccc4ncc(-c5cnn(CC6CCNS(=O)(=O)C6)c5)nc4c3Cl)cc2[nH]1` (centres unmarked) [Compound 192], the pIC50 in assay [1] was 7.00 to 7.70; in assay [2] it was 7.00 to 7.70; in assay [3] it was ≤ 6.40; in assay [4], 7.00 to 7.70.
In the case of `Cc1nc2ccc(Oc3ccc4ncc(-c5cnn(CC(=O)N6C[C@@H](C)O[C@@H](C)C6)c5)nc4c3Cl)cc2[nH]1` [Compound 193], the pIC50 was 6.40 to 7.00 in assay [1], 6.40 to 7.00 in assay [2], ≤ 6.40 in assay [3] and 7.00 to 7.70 in assay [4].
With `Cc1nc2ccc(Oc3ccc4ncc(-c5cnn(C6CCN(c7ccccn7)CC6)c5)nc4c3Cl)cc2[nH]1` [Compound 194], the pIC50 was 6.40 to 7.00 in assay [1], 6.40 to 7.00 in assay [2], ≤ 6.40 in assay [3] and 6.40 to 7.00 in assay [4].
With `Cc1nc2ccc(Oc3ccc4ncc(-c5cnn(C(C)(C)C(=O)C6CC[C@H](F)C6)c5)nc4c3Cl)cc2[nH]1` (some centres unmarked) [Compound 195], the pIC50 is 7.00 to 7.70 in assay [1], 7.00 to 7.70 in assay [2], ≤ 6.40 in assay [3] and 7.00 to 7.70 in assay [4].
Regarding `Cc1nc2ccc(Oc3ccc4ncc(-c5cnn(C6CN(c7cncc(F)c7)C6)c5)nc4c3Cl)cc2[nH]1` [Compound 196], the pIC50 in assay [1] was 6.40 to 7.00; in assay [2], 6.40 to 7.00; in assay [3] it was ≤ 6.40; in assay [4] it was 6.40 to 7.00.
For the compound `Cc1nc2ccc(Oc3ccc4ncc(-c5cnn(C6CCN(c7cncc(F)c7)CC6)c5)nc4c3Cl)cc2[nH]1` [Compound 197], the pIC50 in assay [1] is 6.40 to 7.00; in assay [2] it was 6.40 to 7.00; in assay [3], ≤ 6.40; in assay [4] it was 7.00 to 7.70.
For the compound `Cc1nc2ccc(Oc3ccc4ncc(-c5cnn(CCN6CC(O)C6)c5)nc4c3Cl)cc2[nH]1` [Compound 198], the pIC50 was 6.40 to 7.00 in assay [1], 6.40 to 7.00 in assay [2], ≤ 6.40 in assay [3] and 7.00 to 7.70 in assay [4].
`C=C(F)/C=C/n1cc(-c2cnc3ccc(Oc4ccc5nc(C)[nH]c5c4)c(Cl)c3n2)cn1` [Compound 199]: the pIC50 in assay [1] is 6.40 to 7.00; in assay [2], 6.40 to 7.00; in assay [3] it was ≤ 6.40; in assay [4], 6.40 to 7.00.
With `Cc1nc2ccc(Oc3ccc4ncc(-c5cnn(C6CN(C(F)(F)F)C6)c5)nc4c3Cl)cc2[nH]1` [Compound 200], the pIC50 in assay [1] was 6.40 to 7.00; in assay [2] it was 6.40 to 7.00; in assay [3] it was ≤ 6.40; in assay [4], 6.40 to 7.00.
As for `COC1CN([C@H]2C[C@@H](n3cc(-c4cnc5ccc(Oc6ccc7nc(C)[nH]c7c6)c(Cl)c5n4)cn3)C2)C1` [Compound 201], the pIC50 in assay [1] is 7.00 to 7.70; in assay [2] it was 7.00 to 7.70; in assay [3], ≤ 6.40; in assay [4] it was 7.00 to 7.70.
`COC1CN([C@H]2C[C@H](n3cc(-c4cnc5ccc(Oc6ccc7nc(C)[nH]c7c6)c(Cl)c5n4)cn3)C2)C1` [Compound 202]: the pIC50 in assay [1] was 7.00 to 7.70; in assay [2], 7.00 to 7.70; in assay [3], ≤ 6.40; in assay [4], 7.00 to 7.70.
As to `Cc1nc2ccc(Oc3ccc4ncc(-c5cnn([C@H]6C[C@H](N7C[C@@H]8C[C@H]7CO8)C6)c5)nc4c3Cl)cc2[nH]1` [Compound 203], the pIC50 was 7.00 to 7.70 in assay [1], 7.00 to 7.70 in assay [2], ≤ 6.40 in assay [3] and 7.00 to 7.70 in assay [4].
For `Cc1nc2ccc(Oc3ccc4ncc(-c5cnn([C@H]6C[C@@H](N7C[C@@H]8C[C@H]7CO8)C6)c5)nc4c3Cl)cc2[nH]1` [Compound 204], the pIC50 in assay [1] is 7.00 to 7.70; in assay [2], 7.00 to 7.70; in assay [3], ≤ 6.40; in assay [4] it was 7.00 to 7.70.
Regarding `Cc1nc2ccc(Oc3ccc4ncc(-c5cnn(C6CC(F)(F)C6)c5)nc4c3Cl)cc2[nH]1` [Compound 205], the pIC50 is 6.40 to 7.00 in assay [1], 6.40 to 7.00 in assay [2], ≤ 6.40 in assay [3] and 6.40 to 7.00 in assay [4].
On to `Cc1nc2ccc(Oc3ccc4ncc(-c5cnn([C@H]6C[C@H](N7C[C@H]8C[C@@H]7CO8)C6)c5)nc4c3Cl)cc2[nH]1` [Compound 206], for which the pIC50 is 7.00 to 7.70 in assay [1], 7.00 to 7.70 in assay [2], 6.40 to 7.00 in assay [3] and 7.00 to 7.70 in assay [4].
As to `Cc1nc2ccc(Oc3ccc4ncc(-c5cnn([C@H]6C[C@@H](N7C[C@H]8C[C@@H]7CO8)C6)c5)nc4c3Cl)cc2[nH]1` [Compound 207], the pIC50 is 7.00 to 7.70 in assay [1], 7.00 to 7.70 in assay [2], 6.40 to 7.00 in assay [3] and 7.00 to 7.70 in assay [4].
For the compound `Cc1nc2ccc(Oc3ccc4ncc(-c5cnn(CC(=O)NCC(C)(C)NC=O)c5)nc4c3Cl)cc2[nH]1` [Compound 208], the pIC50 was 6.40 to 7.00 in assay [1], ≤ 6.40 in assay [2], ≤ 6.40 in assay [3] and 6.40 to 7.00 in assay [4].
As for `Cc1nc2ccc(Oc3ccc4ncc(-c5cnn(C(C)(C)C(=O)N6CCOCC6)c5)nc4c3Cl)cc2[nH]1` [Compound 209], the pIC50 is 6.40 to 7.00 in assay [1], 6.40 to 7.00 in assay [2], ≤ 6.40 in assay [3] and 7.00 to 7.70 in assay [4].
Regarding `Cc1nc2ccc(Oc3ccc4ncc(-c5cnn(C(C)(C)C(=O)N6CC[C@@H](F)C6)c5)nc4c3Cl)cc2[nH]1` [Compound 210], the pIC50 is 6.40 to 7.00 in assay [1], 6.40 to 7.00 in assay [2], ≤ 6.40 in assay [3] and 7.00 to 7.70 in assay [4].
As to `Cc1nc2ccc(Oc3ccc4ncc(-c5cnn(C6CCC(F)(F)C6)c5)nc4c3Cl)cc2[nH]1` (centres unmarked) [Compound 211], the pIC50 in assay [1] is 6.40 to 7.00; in assay [2], 6.40 to 7.00; in assay [3], ≤ 6.40; in assay [4], 6.40 to 7.00.
As for `Cc1nc2ccc(Oc3ccc4ncc(-c5cnn([C@H]6CCN(C7COC7)C[C@@H]6F)c5)nc4c3C)cc2[nH]1` [Compound 212], the pIC50 was 7.00 to 7.70 in assay [1], 7.00 to 7.70 in assay [2], 6.40 to 7.00 in assay [3] and 7.00 to 7.70 in assay [4].
In the case of `Cc1nc2ccc(Oc3ccc4ncc(-c5cnn([C@H]6C[C@@H](N7CC(O)C7)C6)c5)nc4c3Cl)cc2[nH]1` [Compound 213], the pIC50 was 7.00 to 7.70 in assay [1], 7.00 to 7.70 in assay [2], 6.40 to 7.00 in assay [3] and 7.00 to 7.70 in assay [4].
